US9242988B2, “2′-cyano substituted nucleoside derivatives and methods of use thereof for the treatment of viral diseases” (Merck Sharp & Dohme Corp., priority 2012, dated 2016)
pEC50: −log10 of the molar value. Read-outs that look alike come from different tables or passages of the source.

Tested on: HCV replicon cells (1b)
Test: Cell-Based HCV Replicon Assay
Experimental: To measure cell-based anti-HCV activity of selected compounds of the present invention, replicon cells were seeded at 5000 cells/well in 96-well collagen I-coated Nunc plates in the presence of the test compound. Various concentrations of test compound, typically in 10 serial 2-fold dilutions, were added to the assay mixture, with the starting concentration ranging from 250 μM to 1 μM. The final concentration of dimethylsulfoxide was 0.5%, fetal bovine serum was 5%, in the assay media. Cells were harvested on day 3 by the addition of 1× cell lysis buffer (Ambion cat #8721). The replicon RNA level was measured using real time PCR (Taqman assay). The amplicon was located in 5B. The PCR primers were: 5B.2F, […] (SEQ ID. NO. 1); 5B.2R, […] (SEQ ID. NO. 2); the probe sequence was FAM-labeled […] (SEQ ID. NO. 3). GAPDH RNA was used as endogenous control and was amplified in the same reaction as NS5B (multiplex PCR) using primers and VIC-labeled probe recommended by the manufacturer (PE Applied Biosystem). The real-time RT-PCR reactions were run on ABI PRISM 7900HT Sequence Detection System using the following program: 48° C. for 30 minutes, 95° C. for 10 minutes, 40 cycles of 95° C. for 15 sec, 60° C. for 1 minute. The ΔCT values (CT5B-CTGAPDH) were plotted against the concentration of test compound and fitted to the sigmoid dose-response model using XLfit4 (MDL). […] Alternatively, to quantitate the absolute amount of replicon RNA, a standard curve was established by including serially diluted T7 transcripts of replicon RNA in the Taqman assay. All Taqman reagents were from PE Applied Biosystems. Such an assay procedure was described in detail in e.g. Malcolm et al., Antimicrobial Agents and Chemotherapy 50: 1013-1020 (2006).

[1] = Hepatitis C virus, 72 h, read-out: 1b EC50
[2] = Hepatitis C virus, 72 h, replicon RNA level by real time PCR (Taqman), cells harvested on day 3; read-out: 1b EC50
[3] = replicon RNA level by real time PCR (Taqman), cells harvested on day 3; read-out: 1b EC50

`CC(C)OC(=O)[C@H](C)NP(=O)(OC[C@H]1O[C@@H](c2ccc3c(N)ncnn23)[C@](C)(C#N)[C@@H]1O)Oc1ccccc1` (single isomer, unassigned) [Compound 11] showed a pEC50 [1] of 4.46.

For `CC(C)OC(=O)COP(=O)(N[C@@H](C)C(=O)OC(C)C)OC[C@H]1O[C@@H](c2ccc3c(N)ncnn23)[C@](C)(C#N)[C@@H]1O` (single isomer, unassigned) [Compound 12], the pEC50 [2] was < 4.00.

`CC(C)OC(=O)[C@H](C)NP(=O)(OC[C@H]1O[C@@H](c2cnc3c(N)ncnn23)[C@](C)(C#N)[C@@H]1O)Oc1ccccc1` (single isomer, unassigned) [Compound 14] was tested, and the pEC50 [1] was < 4.00.

`CC(C)OC(=O)[C@H](C)NP(=O)(OC[C@H]1O[C@@H](c2cnc3c(N)ncnn23)[C@](C)(C#N)[C@@H]1O)Oc1ccccc1` (single isomer, unassigned) [Compound 15] was tested, and the pEC50 (read-out: 1b EC50; replicon RNA level by real time PCR (Taqman), cells harvested on day 3) was < 4.00.

Compound `CC(C)(C)COP1(=O)OC[C@H]2O[C@@H](c3ccc4c(N)ncnn34)[C@](C)(C#N)[C@@H]2O1` (single isomer, unassigned) [Compound 18] has a pEC50 [2] of 4.48.

`CC(C)(C)COP1(=O)OC[C@H]2O[C@@H](c3ccc4c(N)ncnn34)[C@](C)(C#N)[C@@H]2O1` (single isomer, unassigned) [Compound 19] gave a pEC50 [3] of 4.34.

With `CC(C)OP1(=O)OC[C@H]2O[C@@H](c3cnc4c(N)ncnn34)[C@](C)(C#N)[C@@H]2O1` (single isomer, unassigned) [Compound 20] the pEC50 [2] was 4.11.

With `CC(C)OP1(=O)OC[C@H]2O[C@@H](c3cnc4c(N)ncnn34)[C@](C)(C#N)[C@@H]2O1` (single isomer, unassigned) [Compound 21] the pEC50 [3] was < 4.00.
